Values after ≈ are worked out from the molar mass of the structure shown. Like-named read-outs stand apart in the source and are kept apart here.
Assays:
[1] = system: S. aureus (Smith strain); assay: Efficacy, ip dosing of mice infected with S. aureus; type: in vivo; details: suspensions in saline, 5 animals, FIG. 2
Excerpt: Compounds 12, 19, 26, and 29 were given by the intraperitoneal (ip) route as suspensions in saline to mice previously infected with S. aureus (Smith strain). Vancomycin was used as a positive drug control and saline was used as a negative vehicle control.

[2] = biological target: B.subtilis pol IIIC (Bacillus subtilis, UniProt P13267); assay: biochemical
B.subtilis pol IIIC, sequence (P13267 whole entry): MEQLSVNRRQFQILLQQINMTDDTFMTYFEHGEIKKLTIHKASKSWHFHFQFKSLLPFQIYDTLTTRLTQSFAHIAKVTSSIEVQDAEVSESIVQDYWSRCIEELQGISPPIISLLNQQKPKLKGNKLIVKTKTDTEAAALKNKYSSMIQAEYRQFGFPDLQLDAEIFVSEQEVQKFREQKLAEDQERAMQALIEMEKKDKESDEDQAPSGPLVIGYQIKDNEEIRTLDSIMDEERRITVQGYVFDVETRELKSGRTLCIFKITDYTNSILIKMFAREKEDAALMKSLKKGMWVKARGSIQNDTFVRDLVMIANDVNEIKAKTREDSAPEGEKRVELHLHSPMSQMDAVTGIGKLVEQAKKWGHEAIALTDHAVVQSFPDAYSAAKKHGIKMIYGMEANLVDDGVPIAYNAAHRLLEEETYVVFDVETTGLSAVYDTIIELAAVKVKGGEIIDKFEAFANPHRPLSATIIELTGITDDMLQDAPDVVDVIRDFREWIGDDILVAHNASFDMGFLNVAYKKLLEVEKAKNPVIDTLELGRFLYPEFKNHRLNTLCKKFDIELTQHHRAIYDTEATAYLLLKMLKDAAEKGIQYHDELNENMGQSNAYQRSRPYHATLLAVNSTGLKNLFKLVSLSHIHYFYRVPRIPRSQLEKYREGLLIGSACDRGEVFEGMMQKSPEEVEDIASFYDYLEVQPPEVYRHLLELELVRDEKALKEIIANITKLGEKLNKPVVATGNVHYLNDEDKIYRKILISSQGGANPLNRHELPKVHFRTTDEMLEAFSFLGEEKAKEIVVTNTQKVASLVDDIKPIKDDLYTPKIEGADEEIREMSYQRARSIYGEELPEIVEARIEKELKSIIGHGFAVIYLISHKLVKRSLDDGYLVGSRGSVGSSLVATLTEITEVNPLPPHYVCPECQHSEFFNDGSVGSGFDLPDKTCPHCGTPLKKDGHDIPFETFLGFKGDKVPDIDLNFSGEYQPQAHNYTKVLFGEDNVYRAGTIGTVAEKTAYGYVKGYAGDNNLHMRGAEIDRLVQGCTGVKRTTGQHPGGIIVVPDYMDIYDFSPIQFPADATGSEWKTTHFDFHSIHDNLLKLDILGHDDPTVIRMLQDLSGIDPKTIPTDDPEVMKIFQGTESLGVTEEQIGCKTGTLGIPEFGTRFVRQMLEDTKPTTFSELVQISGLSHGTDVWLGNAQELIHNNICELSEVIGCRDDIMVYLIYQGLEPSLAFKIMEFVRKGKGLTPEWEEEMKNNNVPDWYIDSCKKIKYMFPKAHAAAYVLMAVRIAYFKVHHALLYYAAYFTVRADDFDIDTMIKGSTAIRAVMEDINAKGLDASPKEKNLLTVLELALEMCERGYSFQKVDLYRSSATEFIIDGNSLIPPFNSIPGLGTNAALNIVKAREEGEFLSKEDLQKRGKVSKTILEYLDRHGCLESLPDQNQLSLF
Protocol: DNA pol activity was assayed as described in Barnes et al., Nuc. Acids Res., 6:1203-19 (1979), using activated “nicked” calf-thymus DNA as template primer, 10 pM [^3H-methyl]-dTTP as the labelled dNTP substrate, and dATP, dCTP, and dGTP at 25 μM each.
Inhibitory activity of the compounds is determined by measuring the ability of the agent to inhibit enzyme-catalyzed incorporation of [^3H]-dTMP into nicked calf thymus DNA in the absence of the competitor dGTP or dATP (“truncated assay”) (see G. E. Wright and N. C. Brown, Inhibition of Bacillus subtilis DNA Polymerase III by Arylhydrazinopyrimidines: Novel Properties of 2-Thiouracil Derivatives, Biochim. Biophys. Acta 432:37-48 (1976)). Purified pol IIIC is added to a buffered solution containing Mg^2+, DTT, glycerol, nicked calf thymus DNA, saturating concentrations of dATP, dCTP, dTTP and [^3H]-dTTP. Reaction mixtures are incubated at 30° C. for 10 minutes, quenched and filtered, and radioactivity in the acid-insoluble material measured by scintillation counting. Experiments are done in triplicate. Inhibitors are assayed by addition of several dilutions of a stock solution of inhibitor (DMSO or water, depending on solubility) before enzyme addition. […] The truncated assay, i.e. exclusion of the competitive substrate dGTP or dATP, depending upon whether the compound is a uracil derivative or an isocytosine derivative, respectively, allows for the direct determination of apparent inhibitor constants (K,) in this assay system.

[3] = system: B. subtilis; assay: Inhibition of bacterial growth on agar plates (MIC); type: cell-based; details: Bacillus subtilis, 37° C., 24 hours
Protocol: (§1) Each compound is assayed against a panel of Bacillus, Enterococcus and Staphylococcus, and a Gram-negative bacterium Escherichia coli as negative control, grown in appropriate plate media solidified with 1.3% agar-agar. Stock solutions of the compounds in dimethylsulfoxide or water, depending on solubility, are added to sterile medium at a temperature of 60° C. […] One tenth mL of diluted bacteria containing 500-1000 colony-forming units (CFU) are plated and spread, and the plates incubated at 37° C. for 24 hours. MIC (minimum inhibitory concentration) is equivalent to the lowest concentration at which growth, i.e. colony formation, is not observed.

[4] = system: E. fecalis; assay: as above; type: cell-based; details: 37° C., 24 hours
Protocol: as §1

[5] = system: E. fecium; assay: as above; type: cell-based; details: 37° C., 24 hours
Protocol: as §1

[6] = system: S.aureus (Smith); assay: as above; type: cell-based; details: Staphylococcus aureus, 37° C., 24 hours
Protocol: as §1

[7] = Water solubility; type: physicochemical; details: 25° C. stated for Compound 35
Excerpt: The compounds described herein have increased water solubility; some of the compounds can form salts, such as with inorganic or organic acids or with alkali metal bases, thus greatly increasing their solubilities. […] The improved water solubilities are a distinct advantage in formulation and in dosing of animals for testing, and for ultimate therapeutic use in humans.

[8] = Pharmacokinetics in mice (plasma concentration by HPLC); type: in vivo; details: saline solution
Excerpt: Compound 59 was given to mice in simple saline solutions by various routes—subcutaneous (sc), intravenous (iv), and orally (po). High performance liquid chromatography (HPLC) on a reverse phase C 18 column was used to monitor the concentration of the compound in animal plasma, and the results were plotted as a function of time, as shown in FIG. 1.
Tmax, time to peak concentration; Cmax, peak concentration; T½, half-life; AUC(0-t), area under the curve, from 0 to time t; AUC(0-60), area under the curve, from 0 to 60 minutes; Vd, volume of distribution; Cl, clearance.

[9] = system: S. aureus (Smith strain); assay: Efficacy, sc dosing of mice infected ip with S. aureus; type: in vivo; details: Compound 59 given sc, relative to vehicle control, FIG. 3
Excerpt: Compound 59 was give by the sc route to mice infected by the ip route with S. aureus (Smith strain).

[10] = truncated assay, apparent inhibitor constant, read-out: K1 B.subtilis pol IIIC

SMILES: CCc1cc(Nc2cc(=O)n(CCCCCO)c(=O)[nH]2)ccc1C [Compound 26, 3-(5-Hydroxypentyl)-6-(3-ethyl-4-methylanilino)uracil]
- animals protected [1]: 1 of the 5

SMILES: CCc1cc(Nc2cc(=O)n(CCOCCO)c(=O)[nH]2)ccc1C [Compound 29, 3-[2-(2-Hydroxyethoxy)ethyl]-6-(3-ethyl-4-methylanilino)uracil]
- Ki [2]: 125 nM
- MIC [3]: < 1.25 µg/mL
- MIC [4]: 5 µg/mL (≈ 15 µM)
- MIC [5]: 5 µg/mL (≈ 15 µM)
- MIC [6]: 5 µg/mL (≈ 15 µM)
- animals protected [1]: 4 of the 5

SMILES: CCc1cc(Nc2cc(=O)n(CCCCN3CCOCC3)c(=O)[nH]2)ccc1C.Cl [Compound 59, 3-[4-(N-morpholino)butyl]-6-(3-ethyl-4-methylanilino)uracil hydrochloride]
- solubility [7]: > 60 mg/mL
- AUC(0-t) ([8]; mouse, plasma, iv, 20 mg/kg, iv, 20 mg/kg, 0-120, read-out: AUC(0-t) (converted)): 3900 ng·h/mL
- AUC(0-t) ([8]; mouse, plasma, iv, 20 mg/kg, iv, 20 mg/kg, read-out: AUC(0-60) (converted)): 3400 ng·h/mL
- Cmax ([8]; mouse, plasma, iv, 20 mg/kg): 27400 ng/mL
- clearance ([8]; mouse, plasma, iv, 20 mg/kg): 77 mL/min/kg
- half-life ([8]; mouse, plasma, iv, 20 mg/kg): 39 min
- Tmax ([8]; mouse, plasma, iv, 20 mg/kg, ncm fit): 0 min
- Vd ([8]; mouse, plasma, iv, 20 mg/kg, read-out: Vd): 4.3 L/kg
- bioavailability ([8]; mouse, plasma, po, read-out: oral bioavailability (absorbed from the po route)): ~50%
- Cmax ([8]; mouse, plasma, sc, 20 mg/kg): 4600 ng/mL
- Tmax ([8]; mouse, plasma, sc, 20 mg/kg): 5 min
- half-life ([8]; mouse, plasma, sc, 20 mg/kg): 149 min
- AUC(0-t) ([8]; mouse, plasma, sc, 20 mg/kg, sc, 20 mg/kg, (0-180), read-out: AUC(0-t) (converted)): 6770 ng·h/mL
- AUC(0-t) ([8]; mouse, plasma, sc, 20 mg/kg, sc, 20 mg/kg, read-out: AUC(0-60) (converted)): 3330 ng·h/mL
- Cmax ([8]; mouse, plasma, sc, 200 mg/kg): 15000 ng/mL
- Tmax ([8]; mouse, plasma, sc, 200 mg/kg): 30 min
- half-life ([8]; mouse, plasma, sc, 200 mg/kg): 132 min
- AUC(0-t) ([8]; mouse, plasma, sc, 200 mg/kg, sc, 200 mg/kg, (0-180), read-out: AUC(0-t) (converted)): 26900 ng·h/mL
- AUC(0-t) ([8]; mouse, plasma, sc, 200 mg/kg, sc, 200 mg/kg, read-out: AUC(0-60) (converted)): 10600 ng·h/mL
- Cmax ([8]; mouse, plasma, sc, 400 mg/kg): 24100 ng/mL
- Tmax ([8]; mouse, plasma, sc, 400 mg/kg): 30 min
- half-life ([8]; mouse, plasma, sc, 400 mg/kg): 373 min
- AUC(0-t) ([8]; mouse, plasma, sc, 400 mg/kg, sc, 400 mg/kg, (0-360), read-out: AUC(0-t) (converted)): 75000 ng·h/mL
- AUC(0-t) ([8]; mouse, plasma, sc, 400 mg/kg, sc, 400 mg/kg, read-out: AUC(0-60) (converted)): 19800 ng·h/mL
- Cl ([8]; sc, 20 mg/kg): 30.2 mL/min/kg
- Vd ([8]; sc, 20 mg/kg): 6.5 L/kg
- absorption by the sc route ([8]; sc): completely absorbed
- survival of infected mice [9]: prolonged the survival time of mice relative to vehicle control

SMILES: CN[C@H](CC(C)C)C(=O)N[C@H]1C(=O)N[C@@H](CC(N)=O)C(=O)N[C@H]2C(=O)N[C@H]3C(=O)N[C@H](C(=O)N[C@H](C(=O)O)c4cc(O)cc(O)c4-c4cc3ccc4O)[C@H](O)c3ccc(c(Cl)c3)Oc3cc2cc(c3O[C@@H]2O[C@H](CO)[C@@H](O)[C@H](O)[C@H]2O[C@H]2C[C@](C)(N)[C@H](O)[C@H](C)O2)Oc2ccc(cc2Cl)[C@H]1O [Vancomycin, reference compound]
- animals protected [1]: protected all animals
- survival of infected mice [9]: protected the animals from this infection

SMILES: CCc1cc(Nc2cc(=O)n(CCCCCN3CCc4c([nH]c5ccc(OC)cc45)C3C(=O)O)c(=O)[nH]2)ccc1C (stereo not drawn) [Compound 68, 3-[5-(1-carboxy-6-methoxy-2,3,4,9-tetrahydro-1H-β-carboline-2-yl)pentyl]-6-(3-ethyl-4-methylanilino)uracil]
- Ki [2]: 288 nM
- MIC [3]: 20 µg/mL (≈ 35.7 µM)
- MIC [4]: 80 µg/mL (≈ 143 µM)
- MIC [5]: 80 µg/mL (≈ 143 µM)
- MIC [6]: 40 µg/mL (≈ 71.5 µM)

SMILES: CCc1cc(Nc2cc(=O)n(CCCCN3CCN(c4ccc(C(F)(F)F)cc4[N+](=O)[O-])CC3)c(=O)[nH]2)ccc1C [Compound 64, 3-{4-[4-(2-nitro-4-trifluoromethylphenyl)-1-piperazinyl]butyl}-6-(3-ethyl-4-methylanilino)uracil]
- Ki [2]: 58800 nM
- MIC [3]: 80 µg/mL (≈ 139 µM)
- MIC [4]: 80 µg/mL (≈ 139 µM)
- MIC [5]: 80 µg/mL (≈ 139 µM)
- MIC [6]: 80 µg/mL (≈ 139 µM)

SMILES: CCc1cc(Nc2cc(=O)n(CCCCC#N)c(=O)[nH]2)ccc1C [Compound 20, 3-(4-Cyanobutyl)-6-(3-ethyl-4-methylanilino)uracil]
- Ki [2]: 94 nM
- MIC [3]: 2.5 µg/mL (≈ 7.66 µM)
- MIC [4]: 2.5 µg/mL (≈ 7.66 µM)
- MIC [5]: 5 µg/mL (≈ 15.3 µM)
- MIC [6]: 2.5 µg/mL (≈ 7.66 µM)

SMILES: CCc1cc(Nc2cc(=O)n(CCCCCCO)c(=O)[nH]2)ccc1C [Compound 27, 3-(6-Hydroxyhexyl)-6-(3-ethyl-4-methylanilino)uracil]
- Ki [2]: 49 nM
- MIC [3]: < 1.25 µg/mL
- MIC [4]: 2.5 µg/mL (≈ 7.24 µM)
- MIC [5]: 5 µg/mL (≈ 14.5 µM)
- MIC [6]: 2.5 µg/mL (≈ 7.24 µM)

SMILES: CCc1cc(Nc2cc(=O)n(CCCCO)c(=O)[nH]2)ccc1C [HB-EMAU, 3-(4-hydroxybutyl)-6-(3-ethyl-4-methylanilino)uracil, reference compound]
- Ki [2]: 70 nM
- MIC [3]: < 1.25 µg/mL
- MIC [4]: 5 µg/mL (≈ 15.8 µM)
- MIC [5]: 5 µg/mL (≈ 15.8 µM)
- MIC [6]: 5 µg/mL (≈ 15.8 µM)

SMILES: CCc1cc(Nc2cc(=O)n(CCCCCN3CC=C(c4ccc(F)cc4)CC3)c(=O)[nH]2)ccc1C [Compound 75]
- Ki [2]: 98 nM
- MIC [3]: 5 µg/mL (≈ 10.2 µM)
- MIC [4]: 5 µg/mL (≈ 10.2 µM)
- MIC [5]: 5 µg/mL (≈ 10.2 µM)
- MIC [6]: 5 µg/mL (≈ 10.2 µM)

SMILES: CCc1cc(Nc2cc(=O)n(CCCC(=O)O)c(=O)[nH]2)ccc1C [Compound 31, 3-(3-Carboxypropyl)-6-(3-ethyl-4-methylanilino)uracil]
- Ki [2]: 57 nM
- MIC [3]: > 20 µg/mL
- MIC [4]: > 20 µg/mL
- MIC [5]: 20 µg/mL (≈ 60.4 µM)
- MIC [6]: 10 µg/mL (≈ 30.2 µM)

SMILES: CCc1cc(Nc2cc(=O)n(CCCCN3CCOCC3)c(=O)[nH]2)ccc1C [Compound 35, 3-[4-(N-morpholino)butyl]-6-(3-ethyl-4-methylanilino)uracil]
- Ki [2, 10]: 48 nM
- MIC [3]: 2.5 µg/mL (≈ 6.47 µM)
- MIC [4]: 5 µg/mL (≈ 12.9 µM)
- MIC [5]: 2.5 µg/mL (≈ 6.47 µM)
- MIC [6]: 5 µg/mL (≈ 12.9 µM)
- solubility [7]: < 1 mg/mL

SMILES: CCc1cc(Nc2cc(=O)n(CCCCN3CCC(O)(c4ccc(Cl)cc4)CC3)c(=O)[nH]2)ccc1C [Compound 38, 3{[4-(4-Chlorophenyl)-4-hydroxypiperidino]butyl}-6-(3-ethyl-4-methylanilino)uracil]
- Ki [2, 10]: 25 nM
- MIC [3]: 5 µg/mL (≈ 9.78 µM)
- MIC [4]: 5 µg/mL (≈ 9.78 µM)
- MIC [5]: 5 µg/mL (≈ 9.78 µM)
- MIC [6]: 5 µg/mL (≈ 9.78 µM)

SMILES: CCc1cc(Nc2cc(=O)n(CCCN3CCOCC3)c(=O)[nH]2)ccc1C [Compound 24, 3-[3-(N-Morpholino)propyl]-6-(3-ethyl-4-methylanilino)uracil]
- Ki [2]: 110 nM
- MIC [3]: 2.5 µg/mL (≈ 6.71 µM)
- MIC [4]: 10 µg/mL (≈ 26.8 µM)
- MIC [5]: 5 µg/mL (≈ 13.4 µM)
- MIC [6]: 10 µg/mL (≈ 26.8 µM)

SMILES: CCc1cc(Nc2cc(=O)n(CCCCOC(C)=O)c(=O)[nH]2)ccc1C [Compound 22, 3-(4-Acetoxybutyl)-6-(3-ethyl-4-methylanilino)uracil]
- Ki [2]: 58 nM
- MIC [3]: 1.25 µg/mL (≈ 3.48 µM)
- MIC [4]: 5 µg/mL (≈ 13.9 µM)
- MIC [5]: 5 µg/mL (≈ 13.9 µM)
- MIC [6]: 2.5 µg/mL (≈ 6.96 µM)

Reference: patent US20030114445A1, “N3-substituted 6-anilinopyrimidines and methods to treat-Gram-positive bacterial and mycoplasmal infections” (priority 2001, published 2003)
